Columns and labels:
Assay in all cases: radiometric filter-binding kinase assay
[1] = biological target: CLK2 (human) (UniProt P49760)
[2] = biological target: HIPK3 (human) (UniProt Q9H422)
[3] = biological target: HIPK1 (human) (UniProt Q86Z02); details: compound 100.0 µM
[4] = biological target: PRKCZ (human) (UniProt Q05513)
[5] = biological target: HIPK2 (human) (UniProt Q9H2X6)
[6] = test system: AKT2 (human), P31751 [S474D]
[7] = biological target: MAPK13 (human) (UniProt O15264)
[8] = biological target: RPS6KA5 KD1 KD2 (human) (UniProt O75582)
[9] = biological target: MAP3K7 TAB1 (human) (UniProt Q15750+O43318)
[10] = test system: LCK (mouse); details: accession and sequence are those of the human protein
[11] = biological target: MAP3K1 (human) (UniProt Q13233); details: compound 100.0 µM
[12] = biological target: DAPK1 (human) (UniProt P53355)
[13] = biological target: CAMKK2 (human) (UniProt Q96RR4)
[14] = biological target: PAK7 (human) (UniProt Q9P286)
[15] = biological target: SRC (human) (UniProt P12931)
[16] = biological target: YES1 (human) (UniProt P07947)
Sequence of YES1 (human) (P07947 whole entry, looked up): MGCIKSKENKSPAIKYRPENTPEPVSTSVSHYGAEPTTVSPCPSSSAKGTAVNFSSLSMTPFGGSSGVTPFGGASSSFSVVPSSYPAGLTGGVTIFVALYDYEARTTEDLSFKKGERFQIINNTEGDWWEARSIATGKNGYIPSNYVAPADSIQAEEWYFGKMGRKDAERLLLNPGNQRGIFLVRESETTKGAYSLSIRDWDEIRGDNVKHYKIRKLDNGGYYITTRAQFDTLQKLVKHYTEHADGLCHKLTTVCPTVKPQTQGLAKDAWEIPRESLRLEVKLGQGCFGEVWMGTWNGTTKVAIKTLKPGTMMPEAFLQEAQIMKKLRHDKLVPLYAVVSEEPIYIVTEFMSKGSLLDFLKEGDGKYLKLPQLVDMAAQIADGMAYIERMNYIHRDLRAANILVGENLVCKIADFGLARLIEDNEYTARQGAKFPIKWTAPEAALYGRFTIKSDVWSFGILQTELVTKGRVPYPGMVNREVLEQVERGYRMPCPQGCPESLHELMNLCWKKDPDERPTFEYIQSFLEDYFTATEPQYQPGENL

[17] = biological target: MAP3K5 (human) (UniProt Q99683)
[18] = biological target: MAP3K9 (human) (UniProt P80192)
Sequence of MAP3K9 (human) (P80192 whole entry, looked up): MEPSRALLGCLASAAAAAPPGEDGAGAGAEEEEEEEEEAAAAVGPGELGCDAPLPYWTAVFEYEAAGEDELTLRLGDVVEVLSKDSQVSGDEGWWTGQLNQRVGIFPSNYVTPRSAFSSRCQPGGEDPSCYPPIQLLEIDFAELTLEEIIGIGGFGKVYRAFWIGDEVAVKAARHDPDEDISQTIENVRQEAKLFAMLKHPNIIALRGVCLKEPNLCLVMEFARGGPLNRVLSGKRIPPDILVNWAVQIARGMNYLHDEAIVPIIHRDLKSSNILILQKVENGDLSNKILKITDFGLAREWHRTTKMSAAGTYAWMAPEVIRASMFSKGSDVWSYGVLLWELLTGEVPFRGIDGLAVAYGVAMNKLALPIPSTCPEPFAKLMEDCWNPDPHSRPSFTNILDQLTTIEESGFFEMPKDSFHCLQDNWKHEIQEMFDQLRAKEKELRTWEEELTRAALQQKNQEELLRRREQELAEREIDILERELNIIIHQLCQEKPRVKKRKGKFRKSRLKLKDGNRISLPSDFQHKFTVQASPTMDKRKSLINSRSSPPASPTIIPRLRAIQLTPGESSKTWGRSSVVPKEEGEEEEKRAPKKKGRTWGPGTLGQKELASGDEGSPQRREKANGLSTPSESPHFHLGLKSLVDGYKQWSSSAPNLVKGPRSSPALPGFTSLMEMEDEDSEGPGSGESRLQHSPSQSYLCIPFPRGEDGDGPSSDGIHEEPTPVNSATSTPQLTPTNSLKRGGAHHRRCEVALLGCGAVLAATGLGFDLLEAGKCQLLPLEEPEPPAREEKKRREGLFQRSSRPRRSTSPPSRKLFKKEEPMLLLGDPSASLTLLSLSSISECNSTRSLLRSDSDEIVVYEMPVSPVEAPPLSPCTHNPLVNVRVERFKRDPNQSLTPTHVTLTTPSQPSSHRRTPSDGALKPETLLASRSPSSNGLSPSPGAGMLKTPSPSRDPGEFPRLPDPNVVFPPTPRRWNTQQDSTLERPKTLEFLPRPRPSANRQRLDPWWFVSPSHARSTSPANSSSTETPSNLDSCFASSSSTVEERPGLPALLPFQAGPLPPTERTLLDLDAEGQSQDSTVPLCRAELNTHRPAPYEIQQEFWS

[19] = biological target: EPHB3 (human) (UniProt P54753)
Sequence of EPHB3 (human) (P54753 whole entry, looked up): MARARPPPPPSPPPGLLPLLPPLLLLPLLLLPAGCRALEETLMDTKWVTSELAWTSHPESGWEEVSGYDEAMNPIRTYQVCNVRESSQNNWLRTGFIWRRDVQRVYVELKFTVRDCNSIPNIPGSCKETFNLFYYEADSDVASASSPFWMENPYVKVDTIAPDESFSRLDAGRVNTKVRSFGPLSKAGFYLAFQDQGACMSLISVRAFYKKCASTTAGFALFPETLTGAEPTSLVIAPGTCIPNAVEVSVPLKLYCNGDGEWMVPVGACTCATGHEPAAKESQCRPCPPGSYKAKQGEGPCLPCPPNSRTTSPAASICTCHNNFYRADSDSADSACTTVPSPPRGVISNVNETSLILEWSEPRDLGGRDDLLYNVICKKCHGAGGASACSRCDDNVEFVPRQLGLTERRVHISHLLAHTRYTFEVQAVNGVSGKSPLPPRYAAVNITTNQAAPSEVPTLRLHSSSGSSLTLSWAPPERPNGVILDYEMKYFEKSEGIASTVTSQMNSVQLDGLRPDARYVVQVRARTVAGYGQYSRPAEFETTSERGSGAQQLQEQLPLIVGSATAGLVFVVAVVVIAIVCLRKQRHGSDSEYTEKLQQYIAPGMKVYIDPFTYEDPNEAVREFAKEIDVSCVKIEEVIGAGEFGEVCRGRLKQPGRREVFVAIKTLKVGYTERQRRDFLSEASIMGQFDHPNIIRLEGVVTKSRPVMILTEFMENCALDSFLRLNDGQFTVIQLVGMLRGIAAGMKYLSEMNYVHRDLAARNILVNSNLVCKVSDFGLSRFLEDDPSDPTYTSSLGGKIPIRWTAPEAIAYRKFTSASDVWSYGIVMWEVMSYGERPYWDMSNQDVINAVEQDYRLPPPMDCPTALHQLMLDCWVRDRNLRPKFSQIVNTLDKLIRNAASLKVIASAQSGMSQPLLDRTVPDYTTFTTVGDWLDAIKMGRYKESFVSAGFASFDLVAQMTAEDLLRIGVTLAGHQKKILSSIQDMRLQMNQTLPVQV

[20] = biological target: IGF1R (human) (UniProt P08069)
[21] = biological target: SYK (human) (UniProt P43405)
[22] = biological target: EPHB4 (human) (UniProt P54760); details: compound 100.0 µM
[23] = biological target: CSK (human) (UniProt P41240)
[24] = biological target: GSK3B (human) (UniProt P49841)
[25] = test system: ROCK2 (rat); details: accession and sequence are those of the human protein
[26] = biological target: PAK6 (human) (UniProt Q9NQU5)
[27] = biological target: MARK4 (human) (UniProt Q96L34)
[28] = biological target: PLK1 (human) (UniProt P53350)
Sequence of PLK1 (human) (P53350 whole entry, looked up): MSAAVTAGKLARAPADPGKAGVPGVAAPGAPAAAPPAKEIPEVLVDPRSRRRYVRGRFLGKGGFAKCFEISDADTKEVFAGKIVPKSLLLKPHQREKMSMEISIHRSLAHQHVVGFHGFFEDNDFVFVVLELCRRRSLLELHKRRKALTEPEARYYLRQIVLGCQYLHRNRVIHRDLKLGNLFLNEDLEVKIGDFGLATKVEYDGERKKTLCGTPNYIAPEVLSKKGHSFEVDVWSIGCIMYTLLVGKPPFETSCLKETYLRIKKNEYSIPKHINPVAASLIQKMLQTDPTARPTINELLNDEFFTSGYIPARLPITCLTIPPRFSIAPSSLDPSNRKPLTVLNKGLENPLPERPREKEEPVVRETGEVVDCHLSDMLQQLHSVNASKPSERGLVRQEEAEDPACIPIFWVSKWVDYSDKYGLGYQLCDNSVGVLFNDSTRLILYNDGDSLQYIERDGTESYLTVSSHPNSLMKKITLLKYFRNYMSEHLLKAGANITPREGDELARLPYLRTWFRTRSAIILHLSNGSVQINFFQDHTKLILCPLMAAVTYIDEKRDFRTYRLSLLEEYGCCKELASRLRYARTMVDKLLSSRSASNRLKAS

[29] = biological target: EPHB1 (human) (UniProt P54762)
[30] = test system: PRKAA1 or PRKAA2 (rat); details: accession and sequence are those of the human protein
[31] = biological target: INSR (human) (UniProt P06213)
[32] = biological target: MAPK1 (human) (UniProt P28482)
Sequence of MAPK1 (human) (P28482 whole entry, looked up): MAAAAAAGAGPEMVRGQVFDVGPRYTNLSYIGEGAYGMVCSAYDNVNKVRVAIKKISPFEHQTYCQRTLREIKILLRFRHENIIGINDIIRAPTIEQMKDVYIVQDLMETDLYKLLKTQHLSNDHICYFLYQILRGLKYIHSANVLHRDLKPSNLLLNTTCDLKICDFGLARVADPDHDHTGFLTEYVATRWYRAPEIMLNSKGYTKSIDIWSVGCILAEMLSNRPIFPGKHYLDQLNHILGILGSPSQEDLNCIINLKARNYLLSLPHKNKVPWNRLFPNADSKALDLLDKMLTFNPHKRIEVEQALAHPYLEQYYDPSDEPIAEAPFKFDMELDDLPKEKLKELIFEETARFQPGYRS

[33] = biological target: PKN2 (human) (UniProt Q16513)
[34] = biological target: BRSK2 (human) (UniProt Q8IWQ3)
[35] = biological target: EPHA4 (human) (UniProt P54764)
Sequence of EPHA4 (human) (P54764 whole entry, looked up): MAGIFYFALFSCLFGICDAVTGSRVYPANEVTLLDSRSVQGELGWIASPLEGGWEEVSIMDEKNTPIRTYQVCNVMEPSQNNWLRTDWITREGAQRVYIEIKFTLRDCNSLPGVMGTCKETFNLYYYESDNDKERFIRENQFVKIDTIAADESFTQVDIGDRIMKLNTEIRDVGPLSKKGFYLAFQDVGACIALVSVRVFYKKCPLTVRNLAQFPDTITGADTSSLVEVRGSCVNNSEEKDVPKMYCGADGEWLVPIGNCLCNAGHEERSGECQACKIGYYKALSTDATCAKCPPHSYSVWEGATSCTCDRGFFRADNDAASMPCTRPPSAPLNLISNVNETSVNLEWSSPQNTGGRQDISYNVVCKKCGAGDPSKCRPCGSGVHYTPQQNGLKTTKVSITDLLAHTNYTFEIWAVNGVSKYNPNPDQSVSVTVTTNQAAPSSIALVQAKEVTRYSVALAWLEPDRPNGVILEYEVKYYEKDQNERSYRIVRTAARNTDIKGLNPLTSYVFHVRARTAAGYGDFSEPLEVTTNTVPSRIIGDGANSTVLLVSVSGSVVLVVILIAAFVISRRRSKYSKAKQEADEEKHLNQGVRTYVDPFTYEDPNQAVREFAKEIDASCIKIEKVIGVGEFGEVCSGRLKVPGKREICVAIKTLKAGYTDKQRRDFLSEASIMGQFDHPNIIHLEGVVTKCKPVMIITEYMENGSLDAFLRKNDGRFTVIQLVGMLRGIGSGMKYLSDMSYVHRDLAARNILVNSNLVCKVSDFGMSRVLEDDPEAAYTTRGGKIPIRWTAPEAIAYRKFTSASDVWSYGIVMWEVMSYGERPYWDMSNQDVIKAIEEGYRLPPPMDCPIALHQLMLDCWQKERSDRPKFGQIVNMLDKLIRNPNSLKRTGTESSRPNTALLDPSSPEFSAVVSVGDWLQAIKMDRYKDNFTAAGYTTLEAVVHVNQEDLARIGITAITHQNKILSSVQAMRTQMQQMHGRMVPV

[36] = biological target: MAPK11 (human) (UniProt Q15759)

Sequence of AKT2 (human), P31751 [S474D] (P31751 whole entry S474D, looked up): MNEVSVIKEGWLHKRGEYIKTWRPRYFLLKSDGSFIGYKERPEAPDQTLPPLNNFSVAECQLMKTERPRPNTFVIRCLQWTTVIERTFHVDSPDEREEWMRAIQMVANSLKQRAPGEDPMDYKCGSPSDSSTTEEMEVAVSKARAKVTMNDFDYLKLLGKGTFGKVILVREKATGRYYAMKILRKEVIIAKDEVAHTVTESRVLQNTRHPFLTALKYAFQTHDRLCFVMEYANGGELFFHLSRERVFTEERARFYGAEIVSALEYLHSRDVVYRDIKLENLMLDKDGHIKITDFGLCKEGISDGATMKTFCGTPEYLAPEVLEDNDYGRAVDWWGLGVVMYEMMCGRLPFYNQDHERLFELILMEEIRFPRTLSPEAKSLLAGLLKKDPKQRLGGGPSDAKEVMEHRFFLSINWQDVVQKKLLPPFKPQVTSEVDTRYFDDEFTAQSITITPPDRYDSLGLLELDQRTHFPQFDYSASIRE

residual activity ([1]; compound 10.0 µM): 92%
residual activity ([1]; compound 100.0 µM): 100%
residual activity ([1]; compound 1000.0 µM): 101%
residual activity ([2]; compound 10.0 µM): 81%
residual activity ([2]; compound 100.0 µM): 94%
residual activity ([2]; compound 1000.0 µM): 86%
residual activity [3]: 95%
residual activity ([4]; compound 10.0 µM): 89%
residual activity ([4]; compound 100.0 µM): 103%
residual activity ([5]; compound 10.0 µM): 98%
residual activity ([5]; compound 100.0 µM): 101%
residual activity ([5]; compound 1000.0 µM): 94%
residual activity ([6]; compound 10.0 µM): 81%
residual activity ([6]; compound 100.0 µM): 93%
residual activity ([6]; compound 1000.0 µM): 106%
residual activity ([7]; compound 10.0 µM): 92%
residual activity ([7]; compound 100.0 µM): 102%
residual activity ([8]; compound 10.0 µM): 107%
residual activity ([8]; compound 100.0 µM): 105%
residual activity ([9]; compound 10.0 µM): 105%
residual activity ([9]; compound 100.0 µM): 115%
residual activity ([9]; compound 1000.0 µM): 103%
residual activity ([10]; compound 10.0 µM): 74%
residual activity ([10]; compound 100.0 µM): 72%
residual activity ([10]; compound 1000.0 µM): 84%
residual activity [11]: 95%
residual activity ([12]; compound 10.0 µM): 99%
residual activity ([12]; compound 100.0 µM): 102%
residual activity ([12]; compound 1000.0 µM): 104%
residual activity ([13]; compound 100.0 µM): 101%
residual activity ([13]; compound 1000.0 µM): 93%
residual activity ([14]; compound 10.0 µM): 87%
residual activity ([14]; compound 100.0 µM): 125%
residual activity ([14]; compound 1000.0 µM): 93%
residual activity ([15]; compound 100.0 µM): 104%
residual activity ([15]; compound 1000.0 µM): 103%
residual activity ([16]; compound 10.0 µM): 114%
residual activity ([16]; compound 100.0 µM): 116%
residual activity ([16]; compound 1000.0 µM): 118%
residual activity ([17]; compound 10.0 µM): 93%
residual activity ([17]; compound 100.0 µM): 88%
residual activity ([17]; compound 1000.0 µM): 105%
residual activity ([18]; compound 10.0 µM): 87%
residual activity ([18]; compound 100.0 µM): 112%
residual activity ([18]; compound 1000.0 µM): 135%
residual activity ([19]; compound 10.0 µM): 97%
residual activity ([19]; compound 100.0 µM): 105%
residual activity ([19]; compound 1000.0 µM): 114%
residual activity ([20]; compound 100.0 µM): 92%
residual activity ([20]; compound 1000.0 µM): 117%
residual activity ([21]; compound 10.0 µM): 106%
residual activity ([21]; compound 100.0 µM): 118%
residual activity ([21]; compound 1000.0 µM): 116%
residual activity [22]: 122%
residual activity ([23]; compound 10.0 µM): 87%
residual activity ([23]; compound 100.0 µM): 82%
residual activity ([23]; compound 1000.0 µM): 86%
residual activity ([24]; compound 10.0 µM): 92%
residual activity ([24]; compound 1000.0 µM): 108%
residual activity ([25]; compound 10.0 µM): 81%
residual activity ([25]; compound 100.0 µM): 89%
residual activity ([25]; compound 1000.0 µM): 98%
residual activity ([26]; compound 10.0 µM): 90%
residual activity ([26]; compound 100.0 µM): 98%
residual activity ([26]; compound 1000.0 µM): 103%
residual activity ([27]; compound 100.0 µM): 92%
residual activity ([27]; compound 1000.0 µM): 96%
residual activity ([28]; compound 10.0 µM): 94%
residual activity ([28]; compound 100.0 µM): 100%
residual activity ([28]; compound 1000.0 µM): 91%
residual activity ([29]; compound 10.0 µM): 101%
residual activity ([29]; compound 100.0 µM): 103%
residual activity ([29]; compound 1000.0 µM): 104%
residual activity ([30]; compound 10.0 µM): 106%
residual activity ([30]; compound 100.0 µM): 104%
residual activity ([30]; compound 1000.0 µM): 109%
residual activity ([31]; compound 10.0 µM): 60%
residual activity ([31]; compound 100.0 µM): 62%
residual activity ([31]; compound 1000.0 µM): 79%
residual activity ([32]; compound 10.0 µM): 85%
residual activity ([32]; compound 1000.0 µM): 105%
residual activity ([33]; compound 100.0 µM): 108%
residual activity ([33]; compound 1000.0 µM): 84%
residual activity ([34]; compound 10.0 µM): 91%
residual activity ([34]; compound 100.0 µM): 99%
residual activity ([34]; compound 1000.0 µM): 108%
residual activity ([35]; compound 10.0 µM): 98%
residual activity ([35]; compound 100.0 µM): 105%
residual activity ([35]; compound 1000.0 µM): 119%
residual activity ([36]; compound 10.0 µM): 111%
residual activity ([36]; compound 1000.0 µM): 104%
Compound: COC(=O)/C=C/C(=O)OC

From the kinase profiling compilation of Christmann-Franck et al. (2016)
